Data published in patent publication US20230190887A1, “TARGETING G3BP AGGREGATION TO PREVENT NEURODEGENERATION” (priority 2019, published 2023).
“Also recorded” adds a separate entry of the source. Where two headings read alike, the source gives them in different places.

Assays:
[1] = system: MN axons; assay type: cell-based, mouse
[2] = system: HB9::GFP MN axons; assay type: cell-based, mouse
[3] = system: G3BP1 aggregates in midbrain neurons; experiment: Endogenous G3BP1 aggregates in MPP+-treated midbrain neurons; assay type: cell-based, rat; conditions: MPP+ alone
Excerpt: Given that the G3BP1 190-208 peptide prevents degeneration induced by treatment with neurotoxins such as MPP+ and Aβ oligomer and decreases G3BP1 aggregates formed due MPP+ and Aβ treatment.
(A) Size of endogenous G3BP1 aggregates per 100 μm of neurite is shown as indicated bins from midbrain cultures under control conditions and after treatment with MPP+alone or with 190-208 G3BP1 or 168-189 peptides. (B) Size distribution of endogenous G3BP1 aggregates per 100 μm of neurite is shown from cortical neurons treated with 1 μM Aβpeptide or with […] 190-208 G3BP1 or 168-189 control peptide. Non-treated neurons were used as a control. […] (N≥90 over 3 cultures; by two-way ANOVA with Tukey HSD post-hoc).

[4] = system: G3BP1, TIA1, FMRP, FXR, TDP43 and FUS-TLS aggregates in E18 midbrain neurons; experiment: RNA binding protein aggregates along axons of MPP+-treated midbrain neurons; assay type: cell-based, rat; conditions: 100 μM MPP+ 6 hours
Description: FIGS. 14A-14F show PD-causing MPP^+ increases RNA binding protein aggregation. Representative confocal images for G3BP1 (magenta), FMRP (green), FXR (red) and neurofilament immunoreactivity along axons for E18 midbrain neuron cultures (7 DIV)±100 μM MPP^+ for 6 hours are shown in FIG. 14A. […] Quantifications for colocalization of FMRP, FXR, TDP43, FUS-TLS and TIA1 with G3BP1 in axons of E18 midbrain neurons treated. as in FIG. 14A are shown as average Pearson's coefficient±SEM shown in FIG. 14E.

[5] = system: G3BP1 aggregates in E12.5 motor neurons; experiment: Endogenous G3BP1 aggregates in MPP+-treated motor neurons; assay type: cell-based, mouse; conditions: 100 μM MPP+ alone vs control
Description: Previous studies have shown that, exposure of midbrain neurons results in formation of stress granules. To test whether treatment of motor neurons with mitotoxin MPP+ results in the formation of stress granules the inventors stained the MPP+-treated neurons for G3BP1 protein.
(A) Quantification of mitotoxin/neurotoxin MPP+-induced degeneration of DIV7 E12.5 motor neuron neurites after exposure of cultures to 100 μM MPP+ and either 10 μM 190-208 G3BP1 or 168-189 control peptide. As controls, neurons treated with solvents were used. (B) Representative images of G3BP1 (green) and NF-labeled (red) E12.5 motor neurons under control or after treatment with 100 μM MPP+ [scale bar=10 μm]. (C) distribution of sizes of endogenous G3BP1 aggregate per 100 μm neurite is shown as indicated bins from motor neurons cultures as treated in (B). (N≥80 neurites over three repetitions; by one-way ANOVA with Tukey HSD post-hoc). […] (D) Endogenous G3BP1 aggregate sizes per 100 μm neurite indicated as bins for motor neurons either untreated or treated with MPP+ alone or with addition of 10 μM 190-208 G3BP1 or 168-189 control peptide. […] (N≥90 over 3 cultures; by one-way ANOVA with Tukey HSD post-hoc)

[6] = system: wild-type or ALS/FTD-associated mutant (P362L, A381T, E384K) TIA1-GFP in HEK cells; experiment: TIA1-GFP aggregates in arsenite-treated HEK cells; assay type: cell-based
Excerpt: The inventors tested whether the G3BP1 190-208 peptide would prevent the aggregation of granules formed by TIA1 and TDP43 mutant proteins associated with ALS and FTD. […] Next, we treated HEK cells expressing wild-type and or ALS/FTD-associated mutants (P362L, A381T, or E384K)TIA1, with arsenite a potent inducer of SG aggregation, in addition to either G3BP1 190-208 peptide or control G3BP1 168-189 peptide.
FIG. 5: Cell permeable G3BP1 190-208 peptide decreases TIA1-GFP puncta formed due to expression of disease causing TIA1 mutants. (A) Representative images of HEK cells transfected with GFP-tagged wild-type or ALS/FTD-associated mutants (P362L, A381T, or E384K) TIA1. Arrows show TIA1-GFP puncta. (B) Quantification of the percentage of cells with TIA1-GFP puncta greater than 2 μm^2 area in transfected cells relative TIA1-WT-GFP expressing cells. Consistent with previous studies, ALS/FTD- associated TIA1 mutants show increased number of TIA1-GFP puncta as compared to WT-TIA1. (C) HEK cells expressing TIA1-GFP or ALS/FTD-associated mutants TIA1-P362L, TIA1-A381T, TIA1-E384K were treated with sodium arsenite (0.5 mM) for 30 minutes followed by treatment with either 10 μM 190-208 G3BP1 or 168-189 control peptide. The number of cells containing TIA1-GFP puncta were measured and results are reported relative to non-treated controls. Number of HEK cells with TIA1-GFP granules both for WT and ALS/FTD mutants decreased after treatment with 10 μM 190-208 G3BP1 as compared to the 168-189 control peptide treated cells. (N≥90 over 3 cultures; by two-way ANOVA with Tukey HSD post-hoc). Scale bar: 20 μm.

[7] = system: G3BP1-mCherry aggregates in DRG axons; experiment: Live cell imaging of G3BP1-mCherry granules; assay type: cell-based, rat; conditions: 10 μM peptide, 15 min
Description: Live cell imaging for G3BP1-mCherry granules. DRG neurons were transfected with G3BP1-mCherry, and 36 h later distal axons were imaged using Leica SP8X confocal microscope with environmental chamber maintained at 37° C., 5% CO2 (with 63×/1.4 NA oil immersion objective). G3BP1-mCherry signals were imaged as single optical planes in the axon shaft every 2 s for 100 frames (at 540 nm excitation and 23% white light laser power; 565-597 nm emission). To study the effect of the G3BP1 190-208 or 168-189 peptide, 10 μM FITC-conjugated peptide was added to the media and 15 min later imaging was continued.
For quantitation of G3BP1-mCherry aggregates density and size, a 100 μm of the axon shaft was considered (≥200 μm from cell body). Thresholding was applied to acquired image sequences using ImageJ to generate binary masks.
ImageJ particle analyzer was used for analysis. G3BP1 aggregates with area≥1 μm^2 were considered as SG-like structures. For analyzing the G3BP1 aggregate velocity, ImageJ Trackmate plug-in was used.

[8] = system: DRG neurons; experiment: Axon growth in dissociated DRG cultures; assay type: cell-based, rat; conditions: 10 μM Tat-fused peptide added to DRG cultures immediately after plating
Description: Cell culture. For primary neuronal cultures, L4-5 DRG were harvested in Hybernate-A medium (BrainBits) and then dissociated as described. After centrifugation and washing in DMEM/F12 (Life Technologies), cells were resuspended in DMEM/F12, 1×N1 supplement (Sigma), 10% fetal bovine serum (Hyclone), and 10 μM cytosine arabinoside (Sigma). Dissociated DRGs were plated immediately on laminin/poly-L-lysine-coated coverslips or transfected (see below) and then plated on coated coverslips.
[…] Neurite outgrowth was assessed 24 h after addition of peptides. For the cortical cultures, 10 μM peptide was applied to the axonal compartment at 3 d in vitro (DIV) and axonal growth was assessed at 6 DIV. For iMotor neurons, 20 μM peptides were immediately added and neurite growth was assessed 24 h later.
For neurite outgrowth, images from 60 h DRG cultures were analyzed for neurite outgrowth using WIS-Neuromath. Axon morphology was visualized using GFP and/or NF immunofluorescence as described. Differentiated hiPSC neuron image acquisition and neurite length quantification was performed using Arrayscan XTI (Thermo Fisher).

[9] = system: TIA1, G3BP1 and TDP43 granules in E12.5 motor neurons; experiment: Stress granule protein granules in neurites of arsenite-treated motor neurons; assay type: cell-based, mouse
Excerpt: To further evaluate whether mutant TIA1 and TDP43 protein aggregates are affected by G3BP1 190-208 peptide, the inventors expressed the mutant proteins in embryonic motor neurons and assessed granules formed in neurites with or without arsenite treatment either in the presence of G3BP1 190-208 or control 168-189 peptide.
FIG. 6: Cell permeable G3BP1 190-208 peptide decreases granules formed by endogenous TIA1 and TDP43 and exogenous TDP43 and TIA1 mutants in motor neurons after sodium arsenite exposure. (A) Embryonic motor neurons isolated from E12.5 mouse embryos were exposed to sodium arsenite (0.5 mM) for 30 minutes and then treated with 10 μM 190- 208 or […] peptide. After fixation endogenous TIA1 was visualized by immunostaining. The number of TIA1 granules greater than 2 μm^2 per 100 μm of neurite were measured. (B) E12.5 motor neurons were treated as described in (A) and immunostaining was used to detect endogenous G3BP1 protein. The number of G3BP1 granules greater than 2 μm^2 per 100 μm of neurite were measured. […] (C) E12.5 motor neurons expressing TIA1-GFT or ALS/FTD-associated mutants TIA1-A381T, TIA1-E384K were treated with sodium arsenite (0.5 mM) for 30 minutes followed by treatment with either 10 μM 190-208 G3BP1 or 168-189 control peptide. The number of cells containing TIA1-GFP puncta were measured 2 μm^2 per 100 μm of neurite and results are reported relative to non-treated controls. The number of TIA1-GFP granules in neurites decreased for WT and ALS/FTD mutants after treatment with 190-208 G3BP1 as compared to the 168-189 control peptide treated cells. (I)) E12.5 motor neurons expressing flag-tagged wildtype TDP43 or ALS-associated mutants TDP43-M337V and TDP43-Q331.K were treated with sodium arsenite (0.5 mM) for 30 minutes followed by treatment with either 10 μM 190-208 G3BP1 or 168189 control peptide. Flag-TDP43 was detected by immunostaining using the anti-flag-antibody. The number of flag-TDP43 granules greater than 2 μm^2 were measured per 100 μm of neurite and the results are reported relative to non-treated controls. The number of Flag-TDP43 granules in neurites were decreased after treatment with 190-208 G3BP1 peptide as compared to the 168-189 control peptide in both WT and ALS/FTD mutants expressing cells. ([…] over 3 cultures; by two-way ANOVA with Tukey HSD post-hoc),

[10] = biological target: DCP1A, endogenous rat protein in axons of cultured adult DRG neurons (rat) (UniProt D4AE80); experiment: proximity ligation assay in axons of fixed rat DRG neurons
[11] = biological target: HuR (ELAVL1), endogenous rat protein in axons of cultured adult DRG neurons (rat) (UniProt B5DF91); experiment: as above
Chain of HuR (ELAVL1), endogenous rat protein in axons of cultured adult DRG neurons (rat) (B5DF91 2-326): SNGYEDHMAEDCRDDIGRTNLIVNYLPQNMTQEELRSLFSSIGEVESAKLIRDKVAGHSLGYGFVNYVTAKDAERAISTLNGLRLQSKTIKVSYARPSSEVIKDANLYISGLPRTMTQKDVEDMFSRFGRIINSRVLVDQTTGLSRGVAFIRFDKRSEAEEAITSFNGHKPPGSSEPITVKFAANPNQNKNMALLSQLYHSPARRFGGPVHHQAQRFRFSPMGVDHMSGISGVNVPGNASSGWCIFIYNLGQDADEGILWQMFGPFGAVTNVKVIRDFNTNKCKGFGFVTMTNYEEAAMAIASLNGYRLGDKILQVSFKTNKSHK

[12] = applied exclusively in axons, NaAsO2 250 μM, Anisomycin 40 μM, Cycloheximide 150 μM
[13] = local axonal administration, Anisomycin 40 μM, Cycloheximide 150 μM, NaAsO2 250 μM

Compound: COc1ccc(C[C@H]2NC[C@H](O)[C@H]2OC(C)=O)cc1 [Anisomycin]
- axonal translation (OPP puncta) [1, 12]: major decrease in axonal translation
- mitochondrial membrane potential (TMRE) [2, 13]: notable reduction in mitochondrial membrane potential

Compound: C[C@@H]1C[C@@H]([C@H](O)CC2CC(=O)NC(=O)C2)C(=O)[C@@H](C)C1 [Cycloheximide]
- axonal translation (OPP puncta) [1, 12]: major decrease in axonal translation
- mitochondrial membrane potential (TMRE) [2, 13]: notable reduction in mitochondrial membrane potential

Compound: C[n+]1ccc(-c2ccccc2)cc1 [MPP+, 1-methyl-4-phenylpyridinium, reference compound]
- endogenous G3BP1 aggregates [3]: increase in endogenous G3BP1 aggregates
- TIA1, FMRP, FXR, TDP43 and FUS-TLS colocalization with G3BP1 [4]: significant increase
- aggregate sizes of G3BP1, TIA1, FMRP, FXR, TDP43 and FUS-TLS along axons [4]: significantly increases the aggregate sizes
- overall levels of these proteins [4]: without any change in overall levels
- endogenous G3BP1 aggregates [5]: increase in G3BP1 aggregates; also recorded: formation of larger G3BP1 granules

Compound: DDSGTFYDQTVSNDLEEHLEEP-YGNKKNNQNNN [168-189 peptide, reference compound]
- size of TIA1 aggregates ([6]; sodium arsenite 0.5 mM 30 minutes, then 10 μM peptide, WT and mutant TIA1): no such change in aggregate size
- density of axonal G3BP1-mCherry aggregates along 100 μm axon [7]: no change in SG density
- size of G3BP1-mCherry aggregates (SG-like structures) [7]: modest but insignificant decrease in SG size
- axon length [8]: lacked activity
- number of large TIA1-GFP granules (>2 μm^2) in neurites ([9]; WT and mutant TIA1-GFP, sodium arsenite 0.5 mM 30 minutes, then 10 μM peptide): no such effect

Compound: EESEEEVEEPEENQQSPEVV-YGNKKNNQNNN (EESEEEVEEPEENQQSPEVVYGNKKNNQNNN; listed as Rattus norvegicus) [147-166, cell-permeable Tat fusion peptide corresponding to residues 147-166 of rat G3BP1]
- axon length [8]: increased axon length

Compound: G3BP1 (Ras GAP SH3 domain binding protein 1), endogenous rat protein in axons of cultured adult DRG neurons (from UniProt D3ZYS7 1-465)
- PLA signals per area [10]: 0.027 signals/m^2
- PLA signals per area [11]: 0.038

Compound: sodium arsenite [NaAsO2, reference compound]
- axonal translation (OPP puncta) [1]: major decrease in axonal translation
- size of TIA1 aggregates ([6]; sodium arsenite 0.5 mM alone, WT and mutants): increases size of TIA1 aggregates
- mitochondrial membrane potential (TMRE) [2]: notable reduction in mitochondrial membrane potential
- size of endogenous TIA1 and G3BP1 aggregates ([9]; arsenite alone): increase in the size of endogenous TIA1 and G3BP1 aggregates
- number of larger TIA1-GFP granules (>2 μm^2) ([9]; arsenite alone, WT and mutant TIA1-GFP): increase in the number of larger granules
- number of large flag-TDP43 aggregates (>2 μm^2) ([9]; arsenite alone, WT and mutant flag-TDP43): increased number of large flag-TDP43 aggregates
